In ChEMBL document CHEMBL1201862, “PubChem BioAssay data set” (2004):
Active and inactive are the calls of the source. Rule as the data show it: actives have a measured IC50 and inactives only a lower limit.

Target: Envelope glycoprotein gp160 (Human immunodeficiency virus 1, UniProt Q6QLK5)
Assay: inhibitors of HIV fusion peptide binding, primary screen, biochemical, uHTS, fluorescence dequenching (AID 1986)

Sequence of Envelope glycoprotein gp160 (Q6QLK5 whole entry, the tested form may be a part): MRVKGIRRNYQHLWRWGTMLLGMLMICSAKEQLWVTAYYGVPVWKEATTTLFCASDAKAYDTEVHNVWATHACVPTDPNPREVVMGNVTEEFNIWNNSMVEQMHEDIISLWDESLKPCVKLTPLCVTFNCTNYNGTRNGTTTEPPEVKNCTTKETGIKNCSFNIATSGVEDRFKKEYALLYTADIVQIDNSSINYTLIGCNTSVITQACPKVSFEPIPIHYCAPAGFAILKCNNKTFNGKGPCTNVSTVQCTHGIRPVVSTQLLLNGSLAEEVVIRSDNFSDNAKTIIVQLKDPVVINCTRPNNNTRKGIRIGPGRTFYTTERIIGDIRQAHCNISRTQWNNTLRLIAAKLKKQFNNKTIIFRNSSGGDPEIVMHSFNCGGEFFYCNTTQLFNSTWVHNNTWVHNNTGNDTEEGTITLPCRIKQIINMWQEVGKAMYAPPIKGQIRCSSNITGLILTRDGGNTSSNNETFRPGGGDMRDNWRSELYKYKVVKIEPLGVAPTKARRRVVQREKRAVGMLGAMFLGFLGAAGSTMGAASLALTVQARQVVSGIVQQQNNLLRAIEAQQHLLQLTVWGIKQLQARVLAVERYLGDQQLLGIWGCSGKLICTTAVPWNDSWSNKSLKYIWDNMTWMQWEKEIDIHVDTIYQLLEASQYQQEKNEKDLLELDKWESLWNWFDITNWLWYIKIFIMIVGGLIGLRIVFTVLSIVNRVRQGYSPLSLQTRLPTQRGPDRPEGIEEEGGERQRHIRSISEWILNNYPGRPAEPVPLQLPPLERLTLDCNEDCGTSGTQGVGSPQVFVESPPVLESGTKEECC

Cc1cc(C)c2nc(N3C(=O)C(O)=C(C(=O)c4ccco4)C3c3ccco3)sc2c1 (stereo unspecified)
IC50: 12.4 µM (active)
